For data set [1], the target named is T1, TUT7 (Homo sapiens, UniProt Q5VYS8).
T1 construct: full-length wild type 1-1495; TEV-cleavable N-terminal His6-GST tag, C-terminal twin Strep tag; E. coli KRX
T1 sequence (Q5VYS8 1-1495): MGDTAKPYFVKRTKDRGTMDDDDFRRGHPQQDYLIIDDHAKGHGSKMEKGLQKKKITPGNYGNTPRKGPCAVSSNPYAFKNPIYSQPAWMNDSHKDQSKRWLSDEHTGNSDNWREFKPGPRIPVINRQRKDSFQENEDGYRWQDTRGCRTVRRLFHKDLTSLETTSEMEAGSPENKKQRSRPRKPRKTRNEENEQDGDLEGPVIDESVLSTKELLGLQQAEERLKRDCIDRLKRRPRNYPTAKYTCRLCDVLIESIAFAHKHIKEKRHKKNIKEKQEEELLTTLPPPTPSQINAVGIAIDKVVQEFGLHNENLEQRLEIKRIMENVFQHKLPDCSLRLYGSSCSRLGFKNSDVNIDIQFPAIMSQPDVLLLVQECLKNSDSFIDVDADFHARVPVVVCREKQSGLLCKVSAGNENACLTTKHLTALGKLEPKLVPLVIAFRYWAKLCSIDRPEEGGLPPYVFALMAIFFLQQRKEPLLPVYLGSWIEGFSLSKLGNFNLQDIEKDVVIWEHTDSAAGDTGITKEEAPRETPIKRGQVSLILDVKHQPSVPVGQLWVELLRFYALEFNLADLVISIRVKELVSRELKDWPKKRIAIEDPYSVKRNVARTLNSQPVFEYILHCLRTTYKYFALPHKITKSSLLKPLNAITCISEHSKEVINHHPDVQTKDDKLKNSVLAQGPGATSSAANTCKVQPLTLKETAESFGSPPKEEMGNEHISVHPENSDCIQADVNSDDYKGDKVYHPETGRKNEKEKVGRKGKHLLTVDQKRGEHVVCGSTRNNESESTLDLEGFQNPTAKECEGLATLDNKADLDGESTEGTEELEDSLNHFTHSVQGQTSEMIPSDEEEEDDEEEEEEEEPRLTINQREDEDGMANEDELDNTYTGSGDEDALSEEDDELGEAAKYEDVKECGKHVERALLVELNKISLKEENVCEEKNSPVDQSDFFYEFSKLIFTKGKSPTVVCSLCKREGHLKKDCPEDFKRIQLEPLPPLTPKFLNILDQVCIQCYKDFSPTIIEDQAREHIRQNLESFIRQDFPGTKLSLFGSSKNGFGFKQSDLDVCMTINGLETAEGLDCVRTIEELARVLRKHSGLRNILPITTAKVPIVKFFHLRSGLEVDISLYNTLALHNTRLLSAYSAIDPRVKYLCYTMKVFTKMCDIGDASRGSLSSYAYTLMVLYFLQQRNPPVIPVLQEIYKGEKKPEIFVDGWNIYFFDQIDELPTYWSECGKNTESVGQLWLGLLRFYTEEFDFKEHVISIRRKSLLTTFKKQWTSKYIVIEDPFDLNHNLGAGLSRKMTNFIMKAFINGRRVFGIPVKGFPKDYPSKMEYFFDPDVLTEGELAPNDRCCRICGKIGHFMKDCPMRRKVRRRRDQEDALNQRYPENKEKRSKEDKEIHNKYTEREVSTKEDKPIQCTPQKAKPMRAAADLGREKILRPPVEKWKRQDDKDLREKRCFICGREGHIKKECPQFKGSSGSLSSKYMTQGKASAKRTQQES
The experiment in a line: in vitro uridylation of labelled pre-let-7g, denaturing PAGE. As to conditions: pre-let-7g RNA co-substrate, no LIN28A, 0.5 mM UTP, 5 mM MgCl2, 50 µM ZnCl2, pH 7.8, 37 °C. The data set is classed as biochemical.

Data set [2] has as its target T1, TUT7. The data set can be described thus: cryo-EM structure, […] Å. The format is binding. As to conditions: pre-let-7g, 2 mM CaCl2, 0.5 mM UTPαS, pH 7.8; catalytic pocket of the CM (active site).
The target in a further data set is T2, TUT7 (ZCCHC6) (Homo sapiens, UniProt Q5VYS8 1-1495).
T2 sequence: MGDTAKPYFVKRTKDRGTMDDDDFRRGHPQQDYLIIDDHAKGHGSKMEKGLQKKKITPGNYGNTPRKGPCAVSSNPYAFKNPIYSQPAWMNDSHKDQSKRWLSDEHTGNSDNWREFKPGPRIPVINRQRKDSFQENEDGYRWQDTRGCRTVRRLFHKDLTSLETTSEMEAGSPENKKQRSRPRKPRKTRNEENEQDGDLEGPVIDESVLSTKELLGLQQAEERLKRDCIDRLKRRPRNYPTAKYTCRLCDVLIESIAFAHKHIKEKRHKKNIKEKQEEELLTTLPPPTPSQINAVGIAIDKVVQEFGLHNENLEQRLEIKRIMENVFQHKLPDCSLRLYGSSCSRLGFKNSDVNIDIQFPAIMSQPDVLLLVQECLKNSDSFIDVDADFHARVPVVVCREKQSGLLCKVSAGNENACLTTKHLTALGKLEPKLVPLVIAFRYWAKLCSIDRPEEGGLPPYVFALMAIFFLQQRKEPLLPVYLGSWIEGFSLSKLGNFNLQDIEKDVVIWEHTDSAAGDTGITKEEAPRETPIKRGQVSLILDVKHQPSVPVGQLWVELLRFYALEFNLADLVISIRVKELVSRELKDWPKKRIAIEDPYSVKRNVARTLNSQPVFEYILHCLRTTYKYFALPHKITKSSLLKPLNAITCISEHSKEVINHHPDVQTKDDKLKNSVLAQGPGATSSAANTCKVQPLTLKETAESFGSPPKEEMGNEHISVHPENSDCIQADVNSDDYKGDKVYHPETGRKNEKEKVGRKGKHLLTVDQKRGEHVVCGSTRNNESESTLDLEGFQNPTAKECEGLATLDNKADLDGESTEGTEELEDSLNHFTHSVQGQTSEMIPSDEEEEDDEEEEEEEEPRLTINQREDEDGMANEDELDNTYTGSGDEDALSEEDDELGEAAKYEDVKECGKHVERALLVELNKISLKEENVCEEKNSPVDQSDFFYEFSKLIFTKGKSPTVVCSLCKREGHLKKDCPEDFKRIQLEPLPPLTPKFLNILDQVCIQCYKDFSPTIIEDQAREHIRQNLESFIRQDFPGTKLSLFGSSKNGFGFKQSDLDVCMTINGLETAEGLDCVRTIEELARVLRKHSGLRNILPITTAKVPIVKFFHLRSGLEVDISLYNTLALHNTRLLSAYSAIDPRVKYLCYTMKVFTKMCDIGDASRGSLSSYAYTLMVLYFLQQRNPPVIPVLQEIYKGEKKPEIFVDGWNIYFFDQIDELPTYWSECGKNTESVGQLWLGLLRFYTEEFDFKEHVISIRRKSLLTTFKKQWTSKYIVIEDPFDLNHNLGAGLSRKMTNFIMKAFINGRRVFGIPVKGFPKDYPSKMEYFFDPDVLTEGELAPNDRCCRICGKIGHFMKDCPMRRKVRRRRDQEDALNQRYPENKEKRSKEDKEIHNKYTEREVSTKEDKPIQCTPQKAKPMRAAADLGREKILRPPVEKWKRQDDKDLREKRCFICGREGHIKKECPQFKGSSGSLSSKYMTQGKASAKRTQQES
The data set can be described thus: cryo-EM; UTPalphaS; binary complex, 3.55 A; EMSA: 20 mM HEPES pH 7.8, 100 mM NaCl, 2 mM CaCl2, 50 uM ZnCl2, 5% glycerol, 5 mM DTT, 0.5 mM UTP, RNase inhibitor, on ice 30 min; 0.1 uM RNA, 0.2 uM TUT, 0.3 uM LIN28A; native gel in 1x TBE at 4 C. Particulars: protein: recombinant; tags: N-term His6-GST (TEV cleavable), C-term twin-Strep; hairpin, 1 nt 3' overhang. (In EMSA bound probe runs differently from free probe, usually more slowly.)

Data set [3] concerns the target T3, human terminal uridylyltransferase 7 (TUT7), full length (1-1495) (human, UniProt Q5VYS8 1-1495).
T3 construct: TUT7 (ZCCHC6), human, residues 1-1495, wild type, synthesised gene; The His6-GST tag is cleavable by tobacco etch virus protease; Unmodified (not PEGylated) enzyme was used for the complexes; also called ZCCHC6; source: E. coli KRX, purified (Strep-XT 4Flow beads, Heparin column, size-exclusion chromatography)
T3 sequence (looked up): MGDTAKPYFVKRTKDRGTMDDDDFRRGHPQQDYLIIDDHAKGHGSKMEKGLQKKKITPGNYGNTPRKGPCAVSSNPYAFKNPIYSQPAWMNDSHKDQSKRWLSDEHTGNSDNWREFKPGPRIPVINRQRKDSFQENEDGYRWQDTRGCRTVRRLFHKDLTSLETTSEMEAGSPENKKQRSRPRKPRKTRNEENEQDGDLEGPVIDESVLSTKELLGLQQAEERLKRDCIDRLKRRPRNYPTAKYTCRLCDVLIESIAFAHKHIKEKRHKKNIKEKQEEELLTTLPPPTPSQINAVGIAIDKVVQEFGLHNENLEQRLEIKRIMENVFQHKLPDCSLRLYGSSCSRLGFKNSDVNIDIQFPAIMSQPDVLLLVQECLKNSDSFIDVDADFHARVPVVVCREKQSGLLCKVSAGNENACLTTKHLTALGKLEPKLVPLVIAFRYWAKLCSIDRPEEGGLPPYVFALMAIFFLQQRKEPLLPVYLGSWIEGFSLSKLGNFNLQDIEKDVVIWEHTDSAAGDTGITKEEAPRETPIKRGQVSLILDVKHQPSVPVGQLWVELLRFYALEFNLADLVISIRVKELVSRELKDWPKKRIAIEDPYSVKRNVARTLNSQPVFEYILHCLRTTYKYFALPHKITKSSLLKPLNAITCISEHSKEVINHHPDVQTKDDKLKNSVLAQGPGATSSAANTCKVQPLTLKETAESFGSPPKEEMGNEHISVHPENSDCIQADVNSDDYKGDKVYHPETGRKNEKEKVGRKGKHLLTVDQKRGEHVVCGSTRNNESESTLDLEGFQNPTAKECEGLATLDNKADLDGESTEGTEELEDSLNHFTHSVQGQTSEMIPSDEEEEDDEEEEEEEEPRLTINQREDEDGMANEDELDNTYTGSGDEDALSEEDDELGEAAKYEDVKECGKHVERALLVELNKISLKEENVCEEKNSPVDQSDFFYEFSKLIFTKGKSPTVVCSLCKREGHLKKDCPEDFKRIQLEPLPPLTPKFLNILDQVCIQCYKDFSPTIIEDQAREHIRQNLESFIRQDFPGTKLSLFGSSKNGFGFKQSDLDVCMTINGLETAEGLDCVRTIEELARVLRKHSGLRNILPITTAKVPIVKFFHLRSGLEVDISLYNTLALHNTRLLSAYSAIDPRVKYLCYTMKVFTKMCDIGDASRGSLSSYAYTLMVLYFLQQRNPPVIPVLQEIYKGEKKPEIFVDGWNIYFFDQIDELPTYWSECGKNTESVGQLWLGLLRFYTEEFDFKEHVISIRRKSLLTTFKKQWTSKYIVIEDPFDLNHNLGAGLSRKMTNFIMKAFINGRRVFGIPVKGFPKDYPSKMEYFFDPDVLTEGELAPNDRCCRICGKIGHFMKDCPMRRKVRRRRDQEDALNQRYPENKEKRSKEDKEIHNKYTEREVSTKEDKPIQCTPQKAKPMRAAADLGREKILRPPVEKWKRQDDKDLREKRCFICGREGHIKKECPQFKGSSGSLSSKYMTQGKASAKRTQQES
The experiment in a line: cryo-EM structure; ternary complexes of TUT7 or TUT4 with pre-let-7g RNA and LIN28A mixed at a molar ratio of 1:1.5:2, overnight on ice with 0.5 mM UTPalphaS, 2 mM DTT, 2 mM CaCl2, then SEC in 20 mM HEPES pH 7.8, 100 mM NaCl. Particulars: both partners purified.

We go through 4 molecules from paper PMC11402785, “Structural basis for activity switching in polymerases determining the fate of let-7 pre-miRNAs” (Nature Structural & Molecular Biology, 2024).

For the molecule `O=c1ccn([C@@H]2O[C@H](COP(=O)(O)OP(=O)(O)OP(=O)(O)O)[C@@H](O)[C@H]2O)c(=O)[nH]1` [UTP], at TUT7 [1], the “in vitro uridylation of labelled pre-let-7g, denaturing PAGE” value is “In vitro activity assays for TUT7 showing mono-uridylation activity in the absence of LIN28A”.
Take `O=c1ccn([C@@H]2O[C@H](COP(O)(=S)OP(=O)(O)OP(=O)(O)O)[C@@H](O)[C@H]2O)c(=O)[nH]1` (stereo partly shown) [UTPαS]: on TUT7 [2], the “cryo-EM structure, 3.55 Å” value was “UTPαS bound and stabilized by the critical residues; F1045, S1047, Q1124, L1126, N1130”.

B1: pre-let-7g (structured_RNA)
RNA: UGAGGUAGUAGUUUGUACAGUUUGAGGGUCUAUGAUACCACCCGGUACAGGAGAUAACUGUACAGGCCACUGCCUUGC
On to B1, for which the binding result with TUT7 (ZCCHC6) is “binds”.

B2: human LIN28A (natural protein)
chain: MGSVSNQQFAGGCAKAAEEAPEEAPEDAARAADEPQLLHGAGICKWFNVRMGFGFLSMTARAGVALDPPVDVFVHQSKLHMEGFRSLKEGEAVEFTFKKSAKGLESIRVTGPGGVFCIGSERRPKGKSMQKRRSKGDRCYNCGGLDHHAKECKLPPQPKKCHFCQSISHMVASCPLKAQQGPSAQGKPTYFREEEEEIHSPTLLPEAQN
notes: LIN28A, human, synthesised gene; Expressed as an N-terminal His6-GST fusion; removal of the tag is not described; The phrase 'full-length wild-type human TUT7 and human LIN28A' may or may not mean that LIN28A was full length; Only the ZK domain is resolved in the maps
With B2, the binding result in data set [3] was “binds”.
